Test results: patent US7074789B2, “Kinase inhibitors” (Amgen Inc., priority 1999, dated 2006)

Legend:
Format in all cases: biochemical
FGFR1 = target: T1, FGFR1 (Homo sapiens, UniProt P11362); assay: Kinase inhibition assay (33P transfer), FGFR1; settings: read-out: FGFR1-1
T1 construct: Kinases are expressed as either kinase domains or full length constructs; made in house

EGFR = target: T2, EGFR (Homo sapiens, UniProt P00533); assay: Kinase inhibition assay (33P transfer), EGFR; settings: Table 2, kinase inhibition class; read-out: EGFR-1
T2 construct: Kinases are expressed as either kinase domains or full length constructs; made in house
In short: (§1)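 Each enzyme, purified to near homogeneity by affinity chromatography, was incubated with ATP carrying 33P and a substrate polymer fixed to the plate. Unbound label was removed with dilute phosphoric acid (0.5%) before adding scintillant and counting. Potency is given as the compound level cutting label uptake by 50%.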

Kdr = target: T3, Kdr (Homo sapiens, UniProt P35968); assay: Kinase inhibition assay (33P transfer), Kdr; settings: read-out: KDR-1
T3 construct: Kinases are expressed as either kinase domains or full length constructs; made in house
T3 sequence (P35968 20-1356, species assumed): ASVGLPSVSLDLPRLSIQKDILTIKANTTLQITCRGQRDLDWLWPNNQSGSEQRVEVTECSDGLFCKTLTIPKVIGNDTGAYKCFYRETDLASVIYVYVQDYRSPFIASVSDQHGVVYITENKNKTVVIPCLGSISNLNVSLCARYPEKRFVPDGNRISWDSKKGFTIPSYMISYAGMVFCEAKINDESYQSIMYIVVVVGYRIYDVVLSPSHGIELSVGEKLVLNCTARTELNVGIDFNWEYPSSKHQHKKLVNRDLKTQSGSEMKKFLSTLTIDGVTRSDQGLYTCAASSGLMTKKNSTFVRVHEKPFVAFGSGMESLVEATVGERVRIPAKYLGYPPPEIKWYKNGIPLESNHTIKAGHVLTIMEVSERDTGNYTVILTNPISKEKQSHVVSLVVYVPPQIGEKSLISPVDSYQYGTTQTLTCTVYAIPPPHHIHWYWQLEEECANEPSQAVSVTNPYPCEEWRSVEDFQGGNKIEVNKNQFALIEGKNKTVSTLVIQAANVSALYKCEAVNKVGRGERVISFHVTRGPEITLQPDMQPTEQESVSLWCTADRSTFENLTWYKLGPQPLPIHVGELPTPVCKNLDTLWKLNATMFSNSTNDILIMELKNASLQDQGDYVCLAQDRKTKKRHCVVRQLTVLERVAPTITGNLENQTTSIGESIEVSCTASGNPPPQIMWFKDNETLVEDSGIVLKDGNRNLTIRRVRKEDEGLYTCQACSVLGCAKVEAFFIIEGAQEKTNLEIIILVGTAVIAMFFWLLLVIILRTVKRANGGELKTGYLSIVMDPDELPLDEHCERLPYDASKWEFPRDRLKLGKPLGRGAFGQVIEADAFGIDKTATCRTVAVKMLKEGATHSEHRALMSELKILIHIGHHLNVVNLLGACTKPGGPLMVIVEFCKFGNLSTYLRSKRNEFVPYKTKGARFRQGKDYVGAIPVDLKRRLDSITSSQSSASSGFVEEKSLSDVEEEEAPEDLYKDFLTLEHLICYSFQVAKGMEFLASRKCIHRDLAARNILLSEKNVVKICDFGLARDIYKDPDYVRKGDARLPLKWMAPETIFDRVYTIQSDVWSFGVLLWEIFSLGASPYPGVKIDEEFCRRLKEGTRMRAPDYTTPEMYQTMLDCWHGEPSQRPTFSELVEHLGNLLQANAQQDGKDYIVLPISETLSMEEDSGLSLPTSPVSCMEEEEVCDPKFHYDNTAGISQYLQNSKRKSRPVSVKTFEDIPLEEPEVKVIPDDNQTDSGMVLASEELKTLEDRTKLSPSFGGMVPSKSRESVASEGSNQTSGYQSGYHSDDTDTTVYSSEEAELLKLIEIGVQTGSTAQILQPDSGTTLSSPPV
In short: (§2)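 Enzyme activity is taken as the amount of 33PO4 moved from ATP onto poly(Glu, Tyr) 4:1 or poly(Arg, Ser) 3:1 fixed to the plate surface. Unbound label is removed with 0.5% phosphoric acid before scintillation counting.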

Flt-1 = target: T4, Flt-1 (Homo sapiens, UniProt P17948); assay: Kinase inhibition assay (33P transfer), Flt-1
T4 construct: Kinases are expressed as either kinase domains or full length constructs; made in house
In short: as §1

Lck = target: T5, Lck (Homo sapiens, UniProt P06239); assay: Kinase inhibition assay (33P transfer), Lck; settings: read-out: Lck-1
T5 construct: Kinases are expressed as either kinase domains or full length constructs; made in house
In short: as §2

Lyn = target: T6, Lyn (Homo sapiens, UniProt P07948); assay: Kinase inhibition assay (33P transfer), Lyn; settings: Table 6, Lyn-1 kinase inhibition class
T6 construct: Kinases are expressed as either kinase domains or full length constructs; made in house
In short: as §1

IGFR-1 = target: T7, IGFR-1 (Homo sapiens, UniProt P08069); assay: Kinase inhibition assay, IGFR-1 (Table 2); settings: Table 2, kinase inhibition class
T7 construct: Kinases are expressed as either kinase domains or full length constructs; made in house

AKT = target: T8, AKT (Homo sapiens, UniProt Q9Y243); assay: Kinase inhibition assay (33P transfer), AKT; settings: Table 2, kinase inhibition class; read-out: AKT3-1
T8 construct: Kinases are expressed as either kinase domains or full length constructs; made in house
T8 sequence (Q9Y243 whole entry, the tested form may be a part): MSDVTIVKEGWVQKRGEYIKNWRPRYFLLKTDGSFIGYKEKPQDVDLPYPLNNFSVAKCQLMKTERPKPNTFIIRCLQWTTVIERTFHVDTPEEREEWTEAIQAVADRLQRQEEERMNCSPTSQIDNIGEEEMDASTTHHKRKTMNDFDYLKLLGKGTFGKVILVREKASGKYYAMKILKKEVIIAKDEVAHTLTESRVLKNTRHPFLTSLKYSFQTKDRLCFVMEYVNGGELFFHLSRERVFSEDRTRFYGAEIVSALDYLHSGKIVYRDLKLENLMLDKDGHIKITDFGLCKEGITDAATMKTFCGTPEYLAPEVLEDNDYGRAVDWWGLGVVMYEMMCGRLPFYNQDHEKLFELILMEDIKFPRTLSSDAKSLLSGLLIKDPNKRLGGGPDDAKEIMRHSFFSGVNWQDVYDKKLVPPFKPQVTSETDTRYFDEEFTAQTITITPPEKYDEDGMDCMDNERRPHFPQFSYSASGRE
In short: as §2

PDGFRB = target: T9, PDGFRB (Homo sapiens, UniProt P09619); assay: Kinase inhibition assay (33P transfer), PDGFRB; settings: read-out: PDGFRB-1
T9 construct: Kinases are expressed as either kinase domains or full length constructs; made in house
T9 sequence (P09619 33-1106, species assumed): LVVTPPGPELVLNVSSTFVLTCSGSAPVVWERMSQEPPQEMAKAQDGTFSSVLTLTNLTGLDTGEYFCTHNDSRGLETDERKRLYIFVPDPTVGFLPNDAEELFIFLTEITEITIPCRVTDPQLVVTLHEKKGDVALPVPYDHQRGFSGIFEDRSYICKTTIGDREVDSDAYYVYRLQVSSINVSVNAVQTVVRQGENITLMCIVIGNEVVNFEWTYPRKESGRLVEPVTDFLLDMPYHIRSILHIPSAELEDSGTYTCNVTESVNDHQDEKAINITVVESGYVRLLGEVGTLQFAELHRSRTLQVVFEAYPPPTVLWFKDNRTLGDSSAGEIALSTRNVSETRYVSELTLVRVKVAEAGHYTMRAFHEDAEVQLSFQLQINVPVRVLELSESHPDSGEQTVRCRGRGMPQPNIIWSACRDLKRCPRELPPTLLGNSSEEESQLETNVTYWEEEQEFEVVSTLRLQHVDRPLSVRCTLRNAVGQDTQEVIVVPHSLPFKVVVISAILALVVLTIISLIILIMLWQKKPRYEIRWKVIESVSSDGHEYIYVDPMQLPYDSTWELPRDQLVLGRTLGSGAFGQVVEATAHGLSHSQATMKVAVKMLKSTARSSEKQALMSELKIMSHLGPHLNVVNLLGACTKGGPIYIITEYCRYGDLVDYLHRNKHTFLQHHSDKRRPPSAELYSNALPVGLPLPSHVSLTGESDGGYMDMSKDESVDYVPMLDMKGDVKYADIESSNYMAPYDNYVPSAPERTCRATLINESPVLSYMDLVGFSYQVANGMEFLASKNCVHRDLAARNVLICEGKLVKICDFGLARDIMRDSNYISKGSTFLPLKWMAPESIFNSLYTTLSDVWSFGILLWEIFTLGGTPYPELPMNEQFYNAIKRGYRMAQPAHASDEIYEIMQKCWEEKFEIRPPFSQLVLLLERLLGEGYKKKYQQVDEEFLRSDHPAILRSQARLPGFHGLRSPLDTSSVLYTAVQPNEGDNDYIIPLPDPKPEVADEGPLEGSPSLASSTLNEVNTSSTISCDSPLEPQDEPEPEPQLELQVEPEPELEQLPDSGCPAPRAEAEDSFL

Src = target: T10, Src (Homo sapiens, UniProt P12931); assay: Kinase inhibition assay (33P transfer), Src; settings: Table 6, Src-1 kinase inhibition class
T10 construct: Kinases are expressed as either kinase domains or full length constructs; made in house
In short: as §1

Zap-70 = target: T11, Zap-70 (Homo sapiens, UniProt P43403); assay: Kinase inhibition assay (33P transfer), Zap-70; settings: read-out: Zap-1
T11 construct: Kinases are expressed as either kinase domains or full length constructs; made in house
T11 sequence (P43403 1-619): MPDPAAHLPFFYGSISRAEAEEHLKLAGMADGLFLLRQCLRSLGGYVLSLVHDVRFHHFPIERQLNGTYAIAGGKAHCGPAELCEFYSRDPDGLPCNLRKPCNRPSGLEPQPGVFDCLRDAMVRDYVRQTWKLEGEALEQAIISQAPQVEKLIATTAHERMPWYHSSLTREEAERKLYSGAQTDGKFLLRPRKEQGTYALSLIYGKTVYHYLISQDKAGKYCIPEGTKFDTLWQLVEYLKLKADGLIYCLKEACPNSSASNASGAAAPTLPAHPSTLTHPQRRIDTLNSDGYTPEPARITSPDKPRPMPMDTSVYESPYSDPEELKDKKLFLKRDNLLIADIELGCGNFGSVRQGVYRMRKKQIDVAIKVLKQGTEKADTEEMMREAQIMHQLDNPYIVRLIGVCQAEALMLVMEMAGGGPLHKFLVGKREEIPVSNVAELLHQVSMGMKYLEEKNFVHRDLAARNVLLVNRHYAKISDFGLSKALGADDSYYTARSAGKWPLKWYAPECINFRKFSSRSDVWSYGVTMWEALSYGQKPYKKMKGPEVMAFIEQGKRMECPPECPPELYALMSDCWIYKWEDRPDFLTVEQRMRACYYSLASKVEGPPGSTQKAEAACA
In short: as §2

Ret-1 = target: T12, Ret-1 (Homo sapiens, UniProt P07949); assay: Kinase inhibition assay (33P transfer), Ret; settings: Table 6, Ret-1 kinase inhibition class
T12 construct: Kinases are expressed as either kinase domains or full length constructs; made in house

c-Met = target: T13, c-Met (Homo sapiens, UniProt P08581); assay: Kinase inhibition assay (33P transfer), c-Met; settings: Table 2, kinase inhibition class; read-out: Met-1
T13 construct: Kinases are expressed as either kinase domains or full length constructs; made in house
T13 sequence (P08581 25-1390): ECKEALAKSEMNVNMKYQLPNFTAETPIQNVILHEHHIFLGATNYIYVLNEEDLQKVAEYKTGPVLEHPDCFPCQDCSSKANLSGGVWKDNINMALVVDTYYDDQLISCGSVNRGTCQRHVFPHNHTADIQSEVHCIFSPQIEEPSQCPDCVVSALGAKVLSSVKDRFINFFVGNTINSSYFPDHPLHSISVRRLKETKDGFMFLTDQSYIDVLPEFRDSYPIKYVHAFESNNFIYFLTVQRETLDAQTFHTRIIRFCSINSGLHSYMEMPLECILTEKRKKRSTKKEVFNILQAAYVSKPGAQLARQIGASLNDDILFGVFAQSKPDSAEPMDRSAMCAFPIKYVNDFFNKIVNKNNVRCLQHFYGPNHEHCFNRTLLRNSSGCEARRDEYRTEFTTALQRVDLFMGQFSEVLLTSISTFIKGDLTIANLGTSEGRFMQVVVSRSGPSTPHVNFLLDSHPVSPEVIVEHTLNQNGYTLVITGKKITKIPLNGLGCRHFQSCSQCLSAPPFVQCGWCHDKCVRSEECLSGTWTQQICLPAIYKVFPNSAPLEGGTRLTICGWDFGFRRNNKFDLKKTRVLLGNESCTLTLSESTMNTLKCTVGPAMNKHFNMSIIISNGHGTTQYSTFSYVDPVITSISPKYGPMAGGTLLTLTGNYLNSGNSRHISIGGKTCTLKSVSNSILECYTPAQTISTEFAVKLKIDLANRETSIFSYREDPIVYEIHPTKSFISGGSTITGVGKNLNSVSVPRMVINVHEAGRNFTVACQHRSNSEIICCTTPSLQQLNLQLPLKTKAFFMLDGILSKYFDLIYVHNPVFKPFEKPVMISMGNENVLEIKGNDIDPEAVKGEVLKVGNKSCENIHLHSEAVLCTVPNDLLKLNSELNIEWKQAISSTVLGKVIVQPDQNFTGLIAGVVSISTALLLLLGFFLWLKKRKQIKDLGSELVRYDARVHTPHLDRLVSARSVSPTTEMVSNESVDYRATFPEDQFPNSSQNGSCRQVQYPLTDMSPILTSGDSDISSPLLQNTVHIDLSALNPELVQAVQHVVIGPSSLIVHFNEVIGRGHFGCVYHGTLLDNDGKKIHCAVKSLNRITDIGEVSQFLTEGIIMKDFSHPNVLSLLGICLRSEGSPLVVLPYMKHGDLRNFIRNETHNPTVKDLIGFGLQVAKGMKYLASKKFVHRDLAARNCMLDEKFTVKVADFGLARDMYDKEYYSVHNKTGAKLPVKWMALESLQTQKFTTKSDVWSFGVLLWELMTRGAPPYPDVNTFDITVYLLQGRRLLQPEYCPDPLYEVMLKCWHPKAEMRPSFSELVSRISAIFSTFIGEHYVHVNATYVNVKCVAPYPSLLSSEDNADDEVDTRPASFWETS
In short: as §1

Tek = target: T14, Tek (Homo sapiens, UniProt Q02763); assay: Kinase inhibition assay (33P transfer), Tek; settings: read-out: Tek-1
T14 construct: Kinases are expressed as either kinase domains or full length constructs; made in house
In short: as §1

Fyn = target: T15, Fyn (Homo sapiens, UniProt P06241); assay: Kinase inhibition assay (33P transfer), Fyn; settings: read-out: Fyn-1
T15 construct: Kinases are expressed as either kinase domains or full length constructs; made in house
In short: as §1

ErbB2 = target: T16, ErbB2 (Homo sapiens, UniProt P04626); assay: Kinase inhibition assay (33P transfer), ErbB2; settings: read-out: ErbB2-2
T16 construct: Kinases are expressed as either kinase domains or full length constructs; made in house
In short: as §1

Itk = target: T17, Itk (Homo sapiens, UniProt Q08881); assay: Kinase inhibition assay (33P transfer), Itk; settings: read-out: Itk-1
T17 construct: Kinases are expressed as either kinase domains or full length constructs; made in house
T17 sequence (Q08881 1-620): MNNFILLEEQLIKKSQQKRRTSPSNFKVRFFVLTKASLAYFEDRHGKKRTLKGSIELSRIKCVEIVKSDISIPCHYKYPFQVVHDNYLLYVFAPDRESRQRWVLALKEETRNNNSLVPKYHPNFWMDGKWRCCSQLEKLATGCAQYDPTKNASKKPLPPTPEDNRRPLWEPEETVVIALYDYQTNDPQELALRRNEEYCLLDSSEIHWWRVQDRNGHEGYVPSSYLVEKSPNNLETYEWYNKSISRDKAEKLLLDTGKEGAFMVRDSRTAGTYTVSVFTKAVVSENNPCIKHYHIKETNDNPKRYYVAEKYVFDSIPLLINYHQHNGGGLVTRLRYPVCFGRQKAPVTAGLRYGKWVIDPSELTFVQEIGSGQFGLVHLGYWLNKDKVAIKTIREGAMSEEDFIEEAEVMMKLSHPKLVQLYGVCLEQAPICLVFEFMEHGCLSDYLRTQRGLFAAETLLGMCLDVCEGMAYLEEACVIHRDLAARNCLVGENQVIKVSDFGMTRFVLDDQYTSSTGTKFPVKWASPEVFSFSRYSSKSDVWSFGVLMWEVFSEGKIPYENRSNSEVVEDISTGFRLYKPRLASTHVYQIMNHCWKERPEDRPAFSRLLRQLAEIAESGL
In short: as §1

ErbB4 = target: T18, ErbB4 (Homo sapiens, UniProt Q15303); assay: Kinase inhibition assay (33P transfer), ErbB4; settings: read-out: ErbB4-1
T18 construct: Kinases are expressed as either kinase domains or full length constructs; made in house

Hck-1 = target: T19, Hck-1 (Homo sapiens, UniProt P08631); assay: Kinase inhibition assay (33P transfer), Hck; settings: Table 6, Hck-1 kinase inhibition class
T19 construct: Kinases are expressed as either kinase domains or full length constructs; made in house
T19 sequence (P08631 whole entry, the tested form may be a part): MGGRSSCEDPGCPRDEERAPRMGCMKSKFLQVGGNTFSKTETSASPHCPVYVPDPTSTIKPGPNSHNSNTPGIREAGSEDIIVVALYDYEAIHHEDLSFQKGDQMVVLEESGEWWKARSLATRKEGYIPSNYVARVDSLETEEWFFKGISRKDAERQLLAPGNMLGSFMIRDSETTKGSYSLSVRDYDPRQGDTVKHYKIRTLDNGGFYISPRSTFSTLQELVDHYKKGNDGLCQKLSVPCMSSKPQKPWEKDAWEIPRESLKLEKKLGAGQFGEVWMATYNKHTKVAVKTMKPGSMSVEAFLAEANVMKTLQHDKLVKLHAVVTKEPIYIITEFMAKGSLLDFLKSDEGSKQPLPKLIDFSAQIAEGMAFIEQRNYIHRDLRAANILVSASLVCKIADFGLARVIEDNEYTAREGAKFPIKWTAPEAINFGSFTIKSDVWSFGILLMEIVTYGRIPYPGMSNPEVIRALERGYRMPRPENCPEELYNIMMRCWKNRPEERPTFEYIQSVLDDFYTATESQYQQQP

SMILES | IC50 (FGFR1) | IC50 (EGFR) | IC50 (Kdr) | IC50 (Flt-1) | IC50 (Lck) | IC50 (Lyn) | IC50 (IGFR-1) | IC50 (AKT) | IC50 (PDGFRB) | IC50 (Src) | IC50 (Zap-70) | IC50 (Ret-1) | IC50 (c-Met) | IC50 (Tek) | IC50 (Fyn) | IC50 (ErbB2) | IC50 (Itk) | IC50 (ErbB4) | IC50 (Hck-1)
COc1cc(Nc2ncnc(-c3cccnc3NC(C)C)n2)cc(OC)c1OC [Compound 1089] | > 11.4 µM | > 11.4 µM | < 1.01 µM | > 11.4 µM | < 1.01 µM | < 1.01 µM | > 11.4 µM | > 11.4 µM | < 1.01 µM | 1.01 to 6.05 µM | > 11.4 µM | < 1.01 µM | > 11.4 µM | > 11.4 µM | 1.01 to 6.05 µM | > 11.4 µM | 6.05 to 8.83 µM | > 11.4 µM | > 11.4 µM
C=CCNc1ncccc1-c1ncnc(Nc2cc(OC)c(OC)c(OC)c2)n1 [Compound 1076] | 1.01 to 6.08 µM | > 11.4 µM | < 1.01 µM | 1.01 to 6.08 µM | < 1.01 µM | > 11.4 µM | > 11.4 µM | > 11.4 µM | < 1.01 µM | 1.01 to 6.08 µM | > 11.4 µM | < 1.01 µM | > 11.4 µM | > 11.4 µM | 1.01 to 6.08 µM | > 11.4 µM | > 11.4 µM | > 11.4 µM | > 11.4 µM
COc1cc(Nc2ncnc(N3c4ccccc4CCC3C)n2)cc(OC)c1OC (centres unmarked) [Compound 612] | < 0.982 µM | 0.982 to 5.89 µM | < 0.982 µM | < 0.982 µM | < 0.982 µM | 0.982 to 5.89 µM | 5.89 to 8.59 µM | > 11 µM | 0.982 to 5.89 µM | 0.982 to 5.89 µM | 8.59 to 11 µM | 0.982 to 5.89 µM | < 0.982 µM | 0.982 to 5.89 µM | 0.982 to 5.89 µM | 0.982 to 5.89 µM | 0.982 to 5.89 µM | 0.982 to 5.89 µM | 8.59 to 11 µM

Now from value to molecule:

IC50 (FGFR1) | IC50 (EGFR) | IC50 (Kdr) | IC50 (Flt-1) | IC50 (Lck) | IC50 (Lyn) | IC50 (IGFR-1) | IC50 (AKT) | IC50 (PDGFRB) | IC50 (Src) | IC50 (Zap-70) | IC50 (Ret-1) | IC50 (c-Met) | IC50 (Tek) | IC50 (Fyn) | IC50 (ErbB2) | IC50 (Itk) | IC50 (ErbB4) | IC50 (Hck-1) | SMILES
< 0.798 µM | 6.98 to 8.97 µM | < 0.798 µM | < 0.798 µM | 0.798 to 4.79 µM | 0.798 to 4.79 µM | 6.98 to 8.97 µM | > 8.97 µM | < 0.798 µM | 6.98 to 8.97 µM | > 8.97 µM | < 0.798 µM | > 8.97 µM | > 8.97 µM | 6.98 to 8.97 µM | 6.98 to 8.97 µM | > 8.97 µM | 4.79 to 6.98 µM | > 8.97 µM | COc1cc(Nc2ncnc(-n3c(NCc4cccc(F)c4)nc4ccccc43)n2)cc(OC)c1OC [Compound 513]
4.96 to 7.24 µM | < 0.827 µM | 0.827 to 4.96 µM | 0.827 to 4.96 µM | < 0.827 µM | < 0.827 µM | 0.827 to 4.96 µM | 4.96 to 7.24 µM | < 0.827 µM | < 0.827 µM | 4.96 to 7.24 µM | < 0.827 µM | 0.827 to 4.96 µM | 0.827 to 4.96 µM | < 0.827 µM | < 0.827 µM | 7.24 to 9.31 µM | < 0.827 µM | 0.827 to 4.96 µM | COc1cc(Nc2ncnc(Nc3ccc4c(cnn4Cc4ccccc4)c3)n2)cc(OC)c1OC [Compound 177]
